Test: xn = mol fraction of the nth substance listed

Cc1ccc(C)cc1 + CCCCCO
293.15 K, 101.33 kPa
Settings	viscosity [mPa·s]
x2 = 0.1458	0.727
x2 = 0.2275	0.792
x2 = 0.2722	0.836
x2 = 0.3455	0.925
x2 = 0.4093	1.022
x2 = 0.4819	1.164
x2 = 0.5534	1.356
x2 = 0.6142	1.543
x2 = 0.7185	1.973
x2 = 0.7687	2.232
x2 = 0.8498	2.747
x2 = 0.9425	3.494

O=Cc1ccccc1 + CCCCCO
viscosity [mPa·s], 101.33 kPa
Settings	x1 = 0.1001	x1 = 0.2014	x1 = 0.3028	x1 = 0.4151	x1 = 0.5074	x1 = 0.599	x1 = 0.7004	x1 = 0.8063	x1 = 0.9052
293.15 K	3.688	3.307	2.964	2.626	2.377	2.153	1.93	1.722	1.547
303.15 K	2.699	2.481	2.281	2.078	1.924	1.783	1.639	1.501	1.383
313.15 K	2.149	2.007	1.874	1.737	1.632	1.534	1.432	1.334	1.247
323.15 K	1.279	1.254	1.229	1.202	1.181	1.16	1.137	1.113	1.092

CCCCCCCCN + CCCCN(CCCC)CCCC
viscosity [mPa·s], 101 kPa
Settings	x2 = 0.1005	x2 = 0.202	x2 = 0.3961	x2 = 0.5022	x2 = 0.5949	x2 = 0.7991	x2 = 0.8964
303.15 K	1.149	1.138	1.126	1.125	1.127	1.14	1.151
313.15 K	0.9719	0.9612	0.9507	0.9506	0.9532	0.97	0.9821

Cc1ccc(C)cc1 + CCCCO
Settings	viscosity [mPa·s]
298.15 K, 101.33 kPa, x2 = 0.1504	0.636
298.15 K, 101.33 kPa, x2 = 0.2649	0.692
298.15 K, 101.33 kPa, x2 = 0.3971	0.797
298.15 K, 101.33 kPa, x2 = 0.5009	0.914
298.15 K, 101.33 kPa, x2 = 0.585	1.047
298.15 K, 101.33 kPa, x2 = 0.6932	1.275
298.15 K, 101.33 kPa, x2 = 0.7688	1.493
308.15 K, 101 kPa, x2 = 0.0495	0.551
308.15 K, 101 kPa, x2 = 0.1136	0.553
308.15 K, 101 kPa, x2 = 0.206	0.562
308.15 K, 101 kPa, x2 = 0.3224	0.592
308.15 K, 101 kPa, x2 = 0.4051	0.647
308.15 K, 101 kPa, x2 = 0.5098	0.724
308.15 K, 101 kPa, x2 = 0.6322	0.796
308.15 K, 101 kPa, x2 = 0.7241	0.937
308.15 K, 101 kPa, x2 = 0.8216	1.118
308.15 K, 101 kPa, x2 = 0.9035	1.327
308.15 K, 101 kPa, x2 = 0.9621	1.619

O=C(O)CCC(=O)O + CCCCO
101 kPa
Settings	viscosity [mPa·s]
308.15 K, x1 = 0.0162	2.167
313.15 K, x1 = 0.0162	1.91
318.15 K, x1 = 0.0162	1.704
318.15 K, x1 = 0.017	1.704
318.15 K, x1 = 0.035	1.848
318.15 K, x1 = 0.0435	1.943
318.15 K, x1 = 0.047	1.943
323.15 K, x1 = 0.0162	1.51
323.15 K, x1 = 0.0435	1.726

O=C(O)c1ccccc1C(=O)O + CCCCO
viscosity [mPa·s]
Settings	308.15 K	313.15 K	318.15 K	323.15 K
101 kPa, x1 = 0.021	–	–	1.806	1.604
101 kPa, x1 = 0.032	–	–	1.928	1.712
101 kPa, x1 = 0.039	–	–	1.985	1.78
101.33 kPa, x1 = 0.021	2.302	2.033	1.806	1.604
101.33 kPa, x1 = 0.032	–	2.18	1.928	1.712

O=Cc1ccccc1 + CCCCO
viscosity [mPa·s], 101.33 kPa
Settings	x1 = 0.1021	x1 = 0.2004	x1 = 0.3089	x1 = 0.4057	x1 = 0.4992	x1 = 0.6014	x1 = 0.6982	x1 = 0.8044	x1 = 0.9027
293.15 K	2.662	2.48	2.294	2.14	2.001	1.86	1.735	1.608	1.498
303.15 K	2.143	2.025	1.903	1.799	1.705	1.608	1.521	1.43	1.352
313.15 K	1.62	1.563	1.503	1.451	1.403	1.352	1.305	1.256	1.212
323.15 K	1.088	1.086	1.084	1.082	1.081	1.079	1.077	1.075	1.074

Cc1ccc(C)cc1 + CCCO
viscosity [mPa·s], 100 kPa
Settings	298.15 K	308.15 K
x2 = 0.0643	0.6146	0.5489
x2 = 0.1254	0.631	0.5619
x2 = 0.2254	0.6713	0.5956
x2 = 0.3547	0.7426	0.6389
x2 = 0.4703	0.8348	0.7071
x2 = 0.5743	0.9545	0.7925
x2 = 0.6683	1.058	0.9054
x2 = 0.7538	1.253	1.028
x2 = 0.8318	1.449	1.198
x2 = 0.9033	1.662	1.337
x2 = 0.9691	1.814	1.457

O=C(O)CCC(=O)O + CCCO
101 kPa
Settings	viscosity [mPa·s]
308.15 K, x1 = 0.0284	1.872
313.15 K, x1 = 0.0284	1.657
313.15 K, x1 = 0.03	1.657
313.15 K, x1 = 0.037	1.72
313.15 K, x1 = 0.043	1.777
313.15 K, x1 = 0.0435	1.888
313.15 K, x1 = 0.048	1.888
318.15 K, x1 = 0.0284	1.492
318.15 K, x1 = 0.0435	1.635
323.15 K, x1 = 0.0284	1.326
323.15 K, x1 = 0.0435	1.462

O=C(O)c1ccccc1C(=O)O + CCCO
viscosity [mPa·s]
Settings	308.15 K	313.15 K	318.15 K	323.15 K
101 kPa, x1 = 0.02	–	1.632	–	–
101 kPa, x1 = 0.027	–	1.732	–	–
101 kPa, x1 = 0.0369	–	1.887	–	–
101.33 kPa, x1 = 0.02	1.78	1.632	1.457	1.302
101.33 kPa, x1 = 0.0369	2.133	1.887	1.672	1.488

O=Cc1ccccc1 + CCCO
Settings	viscosity [mPa·s]
308.15 K, 101 kPa, x2 = 0.8022	1.215

CCCCCCCCN + CCN(CC)CC
viscosity [mPa·s], 101.33 kPa
Settings	x2 = 0.1056	x2 = 0.2038	x2 = 0.4151	x2 = 0.4978	x2 = 0.6055	x2 = 0.8063	x2 = 0.9007
303.15 K	1.021	0.9064	0.7044	0.6396	0.5641	0.4488	0.4031
313.15 K	0.8659	0.7719	0.6062	0.5533	0.4916	0.3975	0.3611

c1ccc(Nc2ccccc2)cc1 + CCN(CC)c1ccccc1
viscosity [mPa·s], 101 kPa
Settings	x1 = 0.1169	x1 = 0.2161	x1 = 0.4308	x1 = 0.5654	x1 = 0.6688	x1 = 0.7545	x1 = 0.8327	x1 = 0.949
298.15 K	2.41	2.98	4.63	6.52	8.13	–	–	–
323.15 K	1.35	1.58	2.22	2.9	3.31	3.82	4.49	5.4

NCCO.O=CO + CCO
viscosity [mPa·s], 101 kPa
Settings	x2 = 0.6996	x2 = 0.7776	x2 = 0.8461	x2 = 0.9031	x2 = 0.9294	x2 = 0.9544	x2 = 0.9779
293.15 K	12.34	7.77	5.01	3.318	2.76	2.28	1.86
298.15 K	10.54	6.762	4.44	3	2.502	2.064	1.71
303.15 K	9.078	5.97	3.984	2.73	2.268	1.902	1.584

O=Cc1ccccc1 + CCO
298.15 K, 101.33 kPa
Settings	viscosity [mPa·s]
x1 = 0.05414	1.092
x1 = 0.08518	1.052
x1 = 0.1016	1.05
x1 = 0.1182	1.051
x1 = 0.1595	1.031
x1 = 0.1727	1.041
x1 = 0.3372	1.158
x1 = 0.6248	1.308
x1 = 0.8076	1.362

Cc1ccc(C)cc1 + CCOC(C)=O
Settings	viscosity [mPa·s]
298.15 K, 101 kPa, x2 = 0.044	0.601
298.15 K, 101 kPa, x2 = 0.1503	0.572
298.15 K, 101 kPa, x2 = 0.2506	0.547
298.15 K, 101 kPa, x2 = 0.3502	0.525
298.15 K, 101 kPa, x2 = 0.4374	0.507
298.15 K, 101 kPa, x2 = 0.4986	0.496
298.15 K, 101 kPa, x2 = 0.5505	0.487
298.15 K, 101 kPa, x2 = 0.6473	0.472
298.15 K, 101 kPa, x2 = 0.7519	0.457
298.15 K, 101 kPa, x2 = 0.8485	0.444
298.15 K, 101 kPa, x2 = 0.9426	0.434
303.15 K, 101.32 kPa, x2 = 0.0624	0.555
303.15 K, 101.32 kPa, x2 = 0.1828	0.534
303.15 K, 101.32 kPa, x2 = 0.2938	0.516
303.15 K, 101.32 kPa, x2 = 0.4031	0.498
303.15 K, 101.32 kPa, x2 = 0.5056	0.481
303.15 K, 101.32 kPa, x2 = 0.552	0.474
303.15 K, 101.32 kPa, x2 = 0.6041	0.465
303.15 K, 101.32 kPa, x2 = 0.6976	0.45
303.15 K, 101.32 kPa, x2 = 0.7887	0.436
303.15 K, 101.32 kPa, x2 = 0.8757	0.423
303.15 K, 101.32 kPa, x2 = 0.9585	0.411
308.15 K, 101 kPa, x2 = 0.044	0.527
308.15 K, 101 kPa, x2 = 0.1503	0.506
308.15 K, 101 kPa, x2 = 0.2506	0.488
308.15 K, 101 kPa, x2 = 0.3502	0.471
308.15 K, 101 kPa, x2 = 0.4374	0.457
308.15 K, 101 kPa, x2 = 0.4986	0.448
308.15 K, 101 kPa, x2 = 0.5505	0.44
308.15 K, 101 kPa, x2 = 0.6473	0.427
308.15 K, 101 kPa, x2 = 0.7519	0.414
308.15 K, 101 kPa, x2 = 0.8485	0.403
308.15 K, 101 kPa, x2 = 0.9426	0.393
313.15 K, 101.32 kPa, x2 = 0.2063	0.481
313.15 K, 101.32 kPa, x2 = 0.4077	0.45
313.15 K, 101.32 kPa, x2 = 0.5061	0.435
313.15 K, 101.32 kPa, x2 = 0.5991	0.423
313.15 K, 101.32 kPa, x2 = 0.8016	0.395

[Cl-].[Cl-].[Cl-].[Cl-].[Ge+4] + CCOC(C)=O
viscosity [mPa·s], 101 kPa
Settings	x2 = 0.1475	x2 = 0.3162	x2 = 0.5235	x2 = 0.6703	x2 = 0.8062
293.15 K	0.576	0.535	0.5	0.481	0.469
303.15 K	0.531	0.486	0.457	0.431	0.416
313.15 K	0.481	0.449	0.406	0.39	0.382

[Cl-].[Cl-].[Cl-].[Cl-].[Ge+4] + CCOCC
293.15 K, 101 kPa
Settings	viscosity [mPa·s]
x2 = 0.2064	0.5
x2 = 0.4027	0.415
x2 = 0.5137	0.376
x2 = 0.6832	0.309
x2 = 0.7964	0.279

CCCCCCCCN + CCOCCO
308.15 K, 101 kPa
Settings	viscosity [mPa·s]
x2 = 0.1595	1.136
x2 = 0.4226	1.512
x2 = 0.5324	1.655
x2 = 0.6307	1.75
x2 = 0.7193	1.725
x2 = 0.7994	1.654
x2 = 0.8723	1.568
x2 = 0.9389	1.497
